Reference: patent US6956030B2, “Use of mometasone furoate for treating upper airway diseases” (Schering Corporation, priority 1994, dated 2005)
Where two headings read alike, the source gives them in different places.

Assays:
[1] = HPLC/radio-flow metabolite profiling of plasma, urine and fecal extracts after ^3H-MF; assay type: in vivo, normal healthy male volunteers
Text: The substantial minimization of the systemic effect of mometasone furoate administered intranasally or by oral inhalation has been measured by High Performance Liquid Chromatography (HPLC) metabolite profiling of plasma radioactivity of mometasone furoate, its substantially complete (>98%) first-pass metabolism in the liver and by a minimal reduction in cortisol secretion levels.
Plasma, urine, expired air filters, Respirgard and fecal samples were collected and assayed for radioactivity content. The limit of quantitation (LOQ) for plasma radioactivity ranged from 0.103 to 0.138 ng eq/ml., except for the nasal spray treatment where the LOQ was 0.025 ng eq/ml. Selected plasma, urine and fecal samples were analyzed for metabolite profiles.
Selected plasma, urine and fecal extracts were analyzed by high performance liquid chromatography (HPLC) with radio-flow monitoring to determine metabolite profiles. […] Approximately 1.5% of the 3 hr. plasma radioactivity was associated with parent drug indicating extensive first past metabolism and rapid inactivation by the liver. In contrast, following intravenous administration, approximately 39% of the 3 hr. plasma radioactivity was associated with parent drug. Approximately 12% and 33% of the 3 hr. plasma radioactivity was associated with parent drug following administration of the MDI and Gentlehaler, respectively. In general, the plasma concentrations of radioactivity following the nasal and oral suspension routes of administration were too low for metabolite profiling.
Hydrolysis of plasma and urine was performed with an enzyme preparation containing both β-glucuronidase and aryl sulfatase. These experiments yielded modest changes in the HPLC metabolite profiles that were consistent with the hydrolytic release of conjugated metabolites.

[2] = test system: patients with seasonal allergic rhinitis; assay: Dose ranging safety and efficacy study, aqueous nasal spray, 4 weeks; assay type: in vivo; conditions: nasal spray 50, 100, 200, 800 mcg/day
Text: In treating allergic and non-allergic rhinitis, the aqueous suspension of mometasone furoate may be administered intranasally by inserting an appropriate device (such as the pump spray bottle used to deliver Vancenase AQ® Nasal Spray as well as the spray bottle disclosed in the Schering Corporation Industrial Design Deposit DM/026304 registered Jun. 1, 1993) into each nostril. Active drug is then expelled (nasal spray device) or could be nasally inhaled (sniffed) as a powder. Efficacy is generally assessed in a double blind fashion by a reduction in nasal symptoms (e.g., sneezing, itching, congestion, and discharge). Other objective measurements (e.g., nasal peak flow and resistance) can be used as supportive indices of efficacy.
In a dose ranging safety and efficacy study, the mometasone furoate aqueous nasal spray formulation at doses of 50 mcg/day, 100 mcg/day, 200 mcg/day, 800 mcg/day or placebo was administered to 480 patients with seasonal allergic rhinitis for 4 weeks.

[3] = test system: symptomatic patients with seasonal allergic rhinitis; assay: Onset of clinical efficacy study, nasal spray, 14 days, total nasal symptom score; assay type: in vivo
Description: The study lasted 14 days in length. Data from 201 patients were used for analysis. a. Signs and symptoms were individually scored by the patient on the diary card, and by the investigator or designee at Screening and Baseline (Day 1), Day 4, Day 8, and Day 15 after treatment. All symptoms (nasal and non-nasal) were rated by the investigator or designee according to the following scale: The overall condition of rhinitis was evaluated by the investigator or designee and patient at the same time as symptoms, and scored according to the following criteria: 3. Drug—Each patient was given a metered nasal pump spray bottle containing either an aqueous suspension of mometasone furoate or placebo. […] After the Baseline visit, each patient was instructed to enter into his/her diary the information about the time of onset of nasal relief and level of nasal symptom relief as no relief, slight, moderate, marked, or complete. At Baseline and each follow-up visit, the physician evaluated the following signs and symptoms of allergic rhinitis, scored as 0=none, 1=mild, 2=moderate, 3=severe. • a. NASAL SYMPTOMS • nasal discharge • congestion/stuffiness • sneezing • itching • b. […] At each follow-up visit post Baseline, the physician and patient evaluated the therapeutic response as 5=no relief, 4=slight relief, 3=moderate relief, 2=marked relief, 1=complete relief. After the Baseline visit, each morning and evening the patient completed a diary to assess the 8 signs and symptoms of allergic rhinitis as described above. The primary efficacy results are based on a survival analysis of the onset times of relief (defined as the first time patient experienced at least moderate relief of nasal symptoms) for the mometasone furoate nasal spray and placebo groups. In this analysis, patients reporting slight or no relief for the first 3 days after treatment were censored at Day 3. Also, results from the patient regular diary (by 15-day average) data were evaluated. Data from 201 patients were used in the survival analysis.

[4] = test system: patients with asthma requiring treatment with inhaled corticosteroids; assay: Randomized double-blinded multicenter Phase II study, MDI BID for 4 weeks; assay type: in vivo
Description: In a recently completed, randomized, double-blinded multicenter, Phase II study, 395 patients with asthma requiring treatment with inhaled corticosteroids were randomized to one of the five treatment groups: mometasone furoate (MDI 112 mcg/day, 400 mcg/day or 1000 mcg/day, beclomethasone dipropionate (BDP) 336 mcg/day, or placebo. All treatment regimens consisted of BID dosing for 4 weeks. PROVENTIL inhalation aerosol (albuterol, USP) was supplied as rescue medication.
Efficacy was evaluated by spirometry and by physician and patient evaluation of asthma signs and symptoms. The forced expiratory volume in one second (FEV1), forced vital capacity (FVC), and forced expiratory flow between 25% to 75% (FEF25%−75%) were measured at each visit by the investigator. The peak expiratory flow rate (PEFR) was measured twice daily (AM and PM) by the patient. FEV1 at endpoint of treatment (last evaluable visit) was the primary measure of efficacy. The investigator (at all visits) and the patient (twice daily) rated wheezing, tightness in chest, shortness of breath, and cough on a scale from 0 (None) to 6 (Incapacitating). In addition, the investigator rated the overall condition of asthma on the same scale at each visit, and the patient kept a diary of the total number of asthma attacks each day, the number of night awakenings due to asthma, and the total number of puffs of Proventil (protocol-permitted rescue medication) used. The actual value and changes from Baseline were analyzed for each visit.

cortisol secretion = assay: Multiple dose 28-day study, aqueous nasal spray, cortisol secretion; assay type: in vivo, normal male volunteers; conditions: intranasal 400 or 1600 mcg/day, 28 days
Text: In a follow-up multiple dose study, 48 normal male volunteers were empaneled in a randomized, third party-blinded, placebo and active-controlled parallel group study. Twelve volunteers in each of four groups received one of the following treatments for 28 days: A) Intranasal aqueous nasal spray suspension formulation of mometasone furoate monohydrate, 400 mcg/day; B) Intranasal aqueous nasal spray suspension formulation of mometasone furoate monohydrate, 1600 mcg/day; C) Intranasal placebo; D) Oral prednisone, 10 mg/day. All treatments were administered as once daily dosing in the morning.

[5] = test system: patients with mild asthma

C[C@@H]1C[C@H]2[C@@H]3CCC4=CC(=O)C=C[C@]4(C)[C@@]3(Cl)[C@@H](O)C[C@]2(C)[C@@]1(OC(=O)c1ccco1)C(=O)CCl [mometasone furoate]
extent of metabolism ([1]; all routes of administration): extensively metabolized
first-pass metabolism in the liver ([1]; in vivo): > 98%
detection of parent drug in plasma by metabolite profiling ([1]; intravenous injection or oral solution, not after oral or nasal suspensions): detectable in plasma by metabolite profiling
bioavailability ([1]; male, human, plasma, 1.03 mg/Subject, oral solution, extensive first pass metabolism, read-out: absolute bioavailability of unchanged mometasone furoate): < 1%
efficacy relative to placebo [2]: effective relative to placebo
tolerability [2]: well tolerated
reduction in total nasal symptom score from baseline ([3]; morning & evening averaged diary, 15-days average): statistically significantly higher than that for the placebo group
median onset time to relief (at least moderate relief of nasal symptoms) ([3]; nasal spray 200 mcg once-a-day, survival analysis, placebo 72 hours, log-rank p<0.001): 35.9 h
patients who recorded slight or no relief (censored) at Day 3 ([3]; of 101 patients, placebo 50 of 100): 24 patients
total asthma scores, assessment of overall condition, therapeutic response ([4]; all doses): superiority of all mometasone furoate doses relative to placebo
improvement of a.m. PEFR versus BDP ([4]; all doses, final week of treatment): significantly better than 336 mg dose of BDP
FEV1 versus BDP 336 mcg/day ([4]; two higher doses (400, 1000 mcg/day), Days 14, 21 and 28): superior to beclomethasone dipropionate
FEV1 versus low dose (112 mcg/day) ([4]; two higher doses, Day 21 and Day 28): significantly superior to the low mometasone furoate dose
cortisol secretion compared to placebo (cortisol secretion): Neither of the 2 doses of the mometasone furoate aqueous nasal spray formulation were associated with any changes in cortisol secretion
tolerability (cortisol secretion): well tolerated
FEV1 compared to placebo ([5]; 1 mg/day group, day 1): statistically significant, clinically meaningful improvement
mean increase in FEV1 versus placebo ([5]; 1, 2 and 4 mg/day groups, every time point day 3 to day 28): statistically significantly greater than for the placebo group
8 a.m. plasma cortisol ([5]; 1000 mcg or 2000 mcg daily, statistically significant compared to placebo): small decreases from Baseline on Days 15 and 21
8 a.m. plasma cortisol ([5]; 4000 mcg daily, statistically different from placebo Day 3 through Day 28): greater decreases in plasma cortisol
increase in FEV1 from Baseline ([5]; at a majority of time points): ≥ 15%
response to ACTH infusion at post-treatment (Day 30) ([5]; in vivo): significant increases from Baseline in plasma cortisol
pulmonary function measured by FEV1 ([5]; three treated groups, MDI twice daily): clinically meaningful increases in pulmonary function
